The structures appear in SMILES notation.

Assay [1] addresses T1, New Delhi MBL-1 (NDM-1) (Klebsiella pneumoniae, UniProt C7C422).
T1 construct: gene blaNDM-1; His6-SUMO tag removed
Kind of assay: steady-state hydrolysis by purified NDM-1, absorbance at […] nm. It is filed as biochemical.

Assay [2] concerns the target T1, New Delhi MBL-1 (NDM-1). Kind of assay: time-dependent covalent fluorescent labelling by SDS-PAGE; blocked by ZnSO4. The format is binding.

T1 sequence (C7C422 29-270 limits assumed): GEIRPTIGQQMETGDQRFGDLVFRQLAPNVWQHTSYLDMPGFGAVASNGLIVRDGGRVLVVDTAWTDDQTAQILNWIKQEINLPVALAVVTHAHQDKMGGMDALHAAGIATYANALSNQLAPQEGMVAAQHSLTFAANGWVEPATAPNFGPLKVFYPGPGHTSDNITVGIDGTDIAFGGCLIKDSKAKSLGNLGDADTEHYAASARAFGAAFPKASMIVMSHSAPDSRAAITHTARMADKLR

Regarding `O=C(Cc1cccs1)N[C@@H]1C(=O)N2C(C(=O)O)=C(/C=C/c3ccc([N+](=O)[O-])cc3[N+](=O)[O-])CS[C@H]12` [nitrocefin], the “steady-state hydrolysis by purified NDM-1, absorbance at 485 nm” value in assay [1] is “we determined the steady-state kinetics of NDM-1–catalyzed hydrolysis of nitrocefin over fixed time intervals”.

With `CN(C)c1cccc2c(S(=O)(=O)NCCN3C(=O)C=CC3=O)cccc12` [DM, N-[2-(dansylamino)ethyl]maleimide], the “time-dependent covalent fluorescent labelling by SDS-PAGE; blocked by ZnSO4” value in assay [2] is “NDM-1 showed time-dependent fluorescent labeling by DM in response to AMA (Fig. 4B)”.
